Laboratory results from patent US12426598B2, “Method for controlling herbicide-resistant weed” (SUMITOMO CHEMICAL COMPANY, LIMITED, priority 2019, dated 2025).

Experiments:
[1] = test system: palmer amaranth containing a Gly399Ala mutation in PPO2; assay: Foliar spray pot test in greenhouse, herbicidal effect; assay type: in vivo, Amaranthus palmeri; details: 200 L/ha, rating 0 to 100
[2] = test system: waterhemp containing a Gly210 deficiency in PPO2; assay: as above; assay type: in vivo, Amaranthus tuberculatus; details: 200 L/ha, rating 0 to 100
[3] = test system: PPO inhibitor-resistant weeds; assay: Pot tests with crops in greenhouse (Examples 73 to 2304)
Experimental: On the same day, compound X is applied to the surface of soil so that the application rate of the compound X is 10, 20, 40, or 80 g/ha and the spray liquid amount is 200 L/ha. The plastic pot is then placed in a greenhouse, and at 7 days after the application, soybeans are seeded, and further at 14 days after seeding the soybeans, the effect on the weeds and crop injuries on the soybeans are investigated.
On the same day, compound X is applied to the surface of soil so that the application rate of the compound X is 10, 20, 40, or 80 g/ha and the spray liquid amount is 200 L/ha. The soybeans are then cultivated in a greenhouse, and at 21 days after seeding, the effect on the weeds and crop injuries on the soybeans are investigated.
The soybeans are then cultivated in a greenhouse, and at 21 days after seeding, compound X is applied to the stem and leaf so that the application rate of the compound X is 10, 20, 40, or 80 g/ha and the spray liquid amount is 200 L/ha. Further, the soybeans are cultivated in the greenhouse, and at 14 days after the application of compound X, the effect on the weeds and crop injuries on the soybeans are investigated.

[4] = Example 2305: plant height 10 cm, sprayed 5 g/ha, 14 days after
[5] = Example 2306: plant height 30 cm, sprayed 20 g/ha, 7 days after
[6] = Examples 289 to 432: as Examples 1 to 144, XtendiMax added at 1 pint/acre (560 g/ha)
[7] = Examples 433 to 576: as Examples 1 to 144, RoundupPowerMax 32 fluid ounce/acre and XtendiMax 1 pint/acre added

## CCOC(=O)COc1ccccc1Oc1nc(-n2c(=O)cc(C(F)(F)F)n(C)c2=O)c(F)cc1Cl [compound X]
[1]; [4]
  Herbicidal effect: 100
[1]; [5]
  Herbicidal effect: 97
[2]; [4]
  Herbicidal effect: 60
[2]; [5]
  Herbicidal effect: 45
[3]; [6]
  effect on the weeds: effective control effect
[3]; [7]
  effect on the weeds: effective control effect

## CCOC(=O)COc1ncccc1Oc1nc(-n2c(=O)cc(C(F)(F)F)n(C)c2=O)c(F)cc1Cl [compound Y]
[3]; Examples 73 to 144: as Examples 1 to 72, compound Y instead of compound X
  effect on the weeds: effective control effect
[3]; [6]
  effect on the weeds: effective control effect
[3]; [7]
  effect on the weeds: effective control effect
